Measurements from US20250170085A1, “TOPICAL FORMULATION TO DECREASE SKIN INFLAMMATION OR REDNESS” (University of Pittsburgh - Of the Commonwealth System of …, priority 2022, published 2025).

Tests used:
[1] = Patient-reported overall discomfort (eye irritation, cold sensation) after facial application of 5% w/w β-alanine cream with menthol; assay type: in vivo, human; conditions: for overall discomfort, scale 0 to 10: attributable to eye irritation and an unpleasant cold sensation
Source text: (§1) FIGS. 2A and 2B show subjective patient-reported scoring for itch (FIG. 2A) and overall discomfort (FIG. 2B) of facially applied cream containing 5% w/w β-alanine and the indicated concentration of menthol. Each of the four formulations (0%, 0.5%, 1.0%, and 1.5% w/w menthol with 5% w/w f-alanine) were sequentially applied to different locations of a patient's cheek skin by a physician. Scoring was on a scale of 0 to 10, with 0 being no itch or discomfort and 10 being maximum itch or discomfort. Each symbol represents an individual patient (n=10). Bar height indicates the average value. Error bars represent +/−SEM. * P<0.05; ** P<0.01. P-values were calculated using a nonparametric ANOVA Kruskai-Wallis test.
(§2) A cohort of patients without inflammatory skin conditions (n=10) was given four different topical formulations for facial application. All four formulations contained 5% w/w β-alanine in Versapro® Cream (see, e.g., Example 1), however, each contained a different concentration of menthol (0.0%, 0.5%, 1.0%, and 1.5% w/w). A physician sequentially applied 0.1 ml of each formulation to distinct areas of the cheek with a 10 minute pause between each application. Patients were asked to rate the degree of itching and overall discomfort on a scale of 0 (no itching) to 10 (maximal itching) over the course of 5 minutes. The same process was repeated for the 0.5%, 1.0% and 1.5% w/w menthol containing formulations.

[2] = Patient-reported itching after facial application of 5% w/w β-alanine cream with menthol; assay type: in vivo, human
Source text: as §1
as §2, with “The same process was repeated for the 0.5%, 1.0% and 1.5% w/w menthol containing formulations.” left out

[3] = Method: The four β-alanine formulations (0%, 2.5%, 5.0%, and 7.5% w/w β-alanine) were sequentially applied to a different location of each patient's cheek skin by a physician. Subjective scoring for itch (0 (none) to 10 (maximum itch)) was recorded over a 5-minute period. Symbols on the bar graph represent individual patients (n=16). Bar height indicates the average value. […] P-values were calculated using a nonparametric ANOVA Kruskai-Wallis test.
β-alanine powder (GNC, #369898) was mixed into Versapro® Cream at a concentration of 0%, 2.5%, 5.0% or 7.5% w/w. The ingredients of Versapro® Cream include water, aloe Barbadensis leaf juice, cyclopentasiloxane, disodium EDTA, emulsifying wax NF, ethylhexglyglycering, ethylhexyl stearate, phenoxyethanol, sorbitol, and tocopheryl acetate. The mixture was agitated until homogenous.
A cohort of patients without skin disease were selected for testing (n=16). Each patient had 0.1 ml of cream applied to cheek skin by a physician. Over the course of 5 minutes, the patients reported the intensity of pruritus (itching) on a scale of 0 (no itching) to 10 (maximal itching). The process was repeated for all four formulations (0%, 2.5%, 5.0% or 7.5% w/w β-alanine) using different areas of cheek skin. The efficacy of topical J3-alanine was determined based on the development of pruritus.

[4] = 0.5% w/w menthol in 5% w/w β-alanine cream

CC1CCC(C(C)C)C(O)C1 (stereo not shown) [menthol, 5-methyl-2-(propan-2-yl)cyclohexan-1-ol]
eye discomfort [1, 4]: without promoting eye discomfort | overall discomfort, scale 0 to 10 ([1]; 1.0% w/w menthol in 5% w/w β-alanine cream): increased | overall discomfort, scale 0 to 10 ([1]; 1.5% w/w menthol in 5% w/w β-alanine cream): increased | intensity of itching [2, 4]: successfully decreased | degree of itching, scale 0 to 10 ([2]; all concentrations of menthol (0.5%, 1.0%, 1.5% w/w) in 5% w/w β-alanine Versapro Cream, 0.1 ml on cheek, over 5 minutes, n=10): notably reduced

NCCC(=O)O [β-alanine, 3-aminopropanoic acid]
intensity of pruritus (itching), scale 0 to 10 ([3]; 2.5% w/w β-alanine in Versapro Cream, 0.1 ml on cheek skin, over 5 minutes, patients without skin disease (n=16)): evident | duration of pruritus triggered by topical cream ([3]; topical β-alanine cream on cheek skin): less than 5 minutes
